In ChEMBL document CHEMBL1201862, “PubChem BioAssay data set” (2004):
Activity calls are given as the source filed them. The rule behind the calls is not given here.

How the values were obtained:
[1] = molecular target: Voltage-gated inwardly rectifying potassium channel KCNH2 (Homo sapiens, UniProt Q12809); conditions: Potency;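 note: confirmatory quantitative high-throughput screen measuring inhibition of hERG channel activity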
HEK293 = experiment: cells; format: functional, cell-based; conditions: Homo sapiens
[2] = molecular target: T1, Nuclear receptor subfamily 0 group B member 1 (Homo sapiens, UniProt P51843); experiment: Luminescence-based cell-based high throughput dose response assay for inhibitors of the orphan nuclear receptor subfamily 0, group B, member 1 (DAX1; NR0B1). [Related pubchem assays (depositor defined):AID504766, AID504790]; format: functional
T1 sequence (P51843 whole entry): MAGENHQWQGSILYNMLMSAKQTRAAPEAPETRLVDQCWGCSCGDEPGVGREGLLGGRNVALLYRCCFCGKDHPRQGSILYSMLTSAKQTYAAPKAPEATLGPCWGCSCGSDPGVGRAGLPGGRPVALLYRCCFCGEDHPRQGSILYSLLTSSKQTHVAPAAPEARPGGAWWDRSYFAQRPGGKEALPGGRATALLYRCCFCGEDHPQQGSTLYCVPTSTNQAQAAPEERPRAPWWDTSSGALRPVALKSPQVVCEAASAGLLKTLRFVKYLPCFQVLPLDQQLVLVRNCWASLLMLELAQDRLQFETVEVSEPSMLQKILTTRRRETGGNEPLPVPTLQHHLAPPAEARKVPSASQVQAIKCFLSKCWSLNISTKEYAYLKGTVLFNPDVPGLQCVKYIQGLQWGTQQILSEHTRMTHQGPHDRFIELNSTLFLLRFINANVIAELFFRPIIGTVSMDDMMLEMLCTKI

Voltage-gated inwardly rectifying potassium channel KCNH2, sequence (Q12809 whole entry): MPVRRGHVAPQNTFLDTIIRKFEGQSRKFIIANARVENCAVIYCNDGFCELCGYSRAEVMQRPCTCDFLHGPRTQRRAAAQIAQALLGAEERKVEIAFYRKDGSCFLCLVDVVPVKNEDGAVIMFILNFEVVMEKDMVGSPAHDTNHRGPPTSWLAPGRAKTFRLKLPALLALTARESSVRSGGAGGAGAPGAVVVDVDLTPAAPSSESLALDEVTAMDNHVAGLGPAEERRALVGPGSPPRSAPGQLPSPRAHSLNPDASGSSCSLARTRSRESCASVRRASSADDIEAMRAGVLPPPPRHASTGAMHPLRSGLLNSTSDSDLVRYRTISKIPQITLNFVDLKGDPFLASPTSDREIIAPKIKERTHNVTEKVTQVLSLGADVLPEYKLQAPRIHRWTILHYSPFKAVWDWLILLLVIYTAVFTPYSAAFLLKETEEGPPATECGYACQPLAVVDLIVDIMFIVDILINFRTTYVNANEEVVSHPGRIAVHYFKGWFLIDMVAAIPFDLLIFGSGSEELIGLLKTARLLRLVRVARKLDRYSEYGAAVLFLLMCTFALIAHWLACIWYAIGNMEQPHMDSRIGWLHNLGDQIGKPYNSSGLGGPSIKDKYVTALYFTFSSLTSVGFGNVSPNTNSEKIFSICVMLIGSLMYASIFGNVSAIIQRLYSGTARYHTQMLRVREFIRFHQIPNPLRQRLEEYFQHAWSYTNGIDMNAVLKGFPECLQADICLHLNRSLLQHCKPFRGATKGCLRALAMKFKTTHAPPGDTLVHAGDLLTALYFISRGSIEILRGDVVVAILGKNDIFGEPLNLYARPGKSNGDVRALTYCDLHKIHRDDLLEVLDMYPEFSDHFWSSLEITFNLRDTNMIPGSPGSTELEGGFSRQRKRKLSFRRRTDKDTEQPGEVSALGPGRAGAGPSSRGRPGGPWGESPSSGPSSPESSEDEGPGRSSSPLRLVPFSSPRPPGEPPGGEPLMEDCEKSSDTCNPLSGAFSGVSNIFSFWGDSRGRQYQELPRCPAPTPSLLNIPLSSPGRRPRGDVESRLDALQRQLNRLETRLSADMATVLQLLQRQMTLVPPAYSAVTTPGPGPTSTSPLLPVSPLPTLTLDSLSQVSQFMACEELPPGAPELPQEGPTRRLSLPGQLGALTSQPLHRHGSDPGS

Structure (SMILES)	AC50 [1]	IC50 (HEK293)	IC50 [2]
C=CCN1CC[C@]23CCCCC2[C@H]1Cc1ccc(O)cc13 (stereo not given in full)	2.24 µM (inconclusive)	–	–
O=C(CN1C(=O)NC2(CCCC2)C1=O)Nc1ccc(OC(F)(F)F)cc1	–	> 67.5 µM (inactive)	> 67.5 µM (inactive)
O=CNC(n1cnc2c(N3CCOCC3)ncnc21)C(Cl)(Cl)Cl (stereo not given)	–	> 67.5 µM (inactive)	> 67.5 µM (inactive)
